The record followed here is patent US4638003A, “1-(4-alkylthiophenyl)-2-(substituted or unsubstituted piperazine-1-yl)-1,3-propanediol, pharmaceutical compositions containing them useful as antiarrhythmic and vasodilating agents” (Zambon S.p.A., priority 1983, dated 1987).

Where a name gives a salt, the structure may show the parent alone.

Data set [1] relates to anesthetized rat. Put plainly: coronary dilating activity (coronary spasm induced by Vasopressin, T wave in E.C.G.) in anesthetized rat. The data set is classed as in vivo. Conditions: T wave restored in 50% of the animals within 2 minutes; for ED50: Rattus norvegicus, iv, 2 min. From the text:
The evaluation of the coronary dilating activity has been performed with the method of O. Nieschultz, et al. (Arzneim. Forsch. 5, 680, 1955).

The nature of data set [2]: in vivo. It counts as in vivo. Conditions: rat, in vivo, iv, ratio between the dose inducing bradycardia 20 and the effective anti-anginal dose 50; read-out: Therapeutic index. The source says:
(§1) Furthermore, tolerability has been tested in the same experimental conditions in which it has been performed the pharmacological study in vivo.
(§2) Tolerability has been referred as effective dose to reduce heart rate of 20%. Therapeutic index has been determined as ratio between the dose inducing bradycardia 20 and the effective anti-anginal dose 50.

Data set [3] relates to anesthetized rat. Put plainly: in vivo. It counts as in vivo. Conditions: for Tolerability: Heart rate (-20%): i.v., compounds solubilized in 40% glyceril formal; for Therapeutic index: ratio between the dose inducing bradycardia 20 and the effective anti-anginal dose 50.
Excerpt: as §1, §2

The subject of data set [4] is isolated rabbit aorta (vascular smooth muscle). Put plainly: calcium antagonist activity on isolated rabbit aorta (CaCl2-induced contraction).
Excerpt: Isolated rabbit aorta: ratio between the CaCl2 con-
Data set [5] deals with anesthetized rat. The data set is described as follows: antiarrhythmic activity against calcium chloride-induced arrhythmia after intravenous administration in anesthetized rat. Conditions: for ED50: Rattus norvegicus, iv, ten minutes before calcium chloride, read-out: ED50 (dose effective to antagonize the appearance of arrythmia in the 50% of the treated animals). The data set is classed as in vivo. The method, then: The evaluation of the antiarrhythmic activity has been performed in the anesthetized rat with the method of M. Malinov et al. (Am. J. Physiol. 172, 743-746, 1953).
Arrythmia has been induced by administering (0.25 ml in 30 seconds) a saline solution containing 15% of calcium chloride into the jugular vein.
In these experimental conditions arrythmia occurs in the 90% of the animals. The compounds have been administered intravenously ten minutes before calcium chloride. The antiarrythmic activity has been referred as dose effective to antagonize the appearance of arrythmia in the 50% of the treated animals (ED50).

Where [6] appears, read: read-out: Coronary dilating activity ED50, i.v. 60 seconds after Vasopressin.
The mark [7] stands for this setting: concentration in perfused liquid 10^-5 M.
[8] abbreviates: concentration in perfused liquid 10^-6 M.
[9] abbreviates: i.v. 60 seconds after Vasopressin, read-out: Coronary dilating activity ED50.
Where [10] appears, read: i.v. 60 seconds after Vasopressin.

What is called ED50 is the dose that gives a 50% effect, or the effect in half of the subjects.

In the case of `CSc1ccc([C@H](O)[C@H](CO)NC(C)COc2ccccc2)cc1` (some centres unmarked) [Z. 1393], in data set [1] (setting [6]), the ED50 turned out to be 0.0038 µmol/kg. For the same molecule, the selectivity ratio in data set [2] amounted to 9. Moreover, the “Tolerability: Heart rate (-20%)” value in data set [3] was 35 nmols/kg.

On to `CSc1ccc([C@H](O)[C@H](CO)NCCC(c2ccccc2)c2ccccc2)cc1` [Z. 1382, (1S,2S)-1-(4-methylthiophenyl)-2-(3,3-diphenylpropylamino)-1,3-propanediol acid maleate], for which the “ratio between the CaCl2 concentration producing the 50% contraction in presence or in absence of various compounds” value is reported as 255 in data set [4] (setting [7]) and 20 in data set [4] (setting [8]). In addition, the ED50 is 19 µmol/kg in data set [5] and 0.00084 µmol/kg in data set [1] (setting [6]). The “number of protected rats/total number” value is 1/8 in data set [5] (dose 7.6 μmols/Kg i.v.), 4/8 in data set [5] (dose 13.4 μmols/Kg i.v.), 3/8 in data set [5] (dose 20 μmols/Kg i.v.) and 5/8 in data set [5] (dose 27 μmols/Kg i.v.). Also, the selectivity ratio in data set [2] worked out at 20. Besides, the “Tolerability: Heart rate (-20%)” value in data set [3] came to 17 nmols/kg.

As to `CSc1ccc([C@@H](O)[C@@H](CO)NC(C)COc2ccccc2)cc1` (some centres unmarked) [Z. 1407], in data set [1] (setting [6]), the ED50 stood at 0.0032 µmol/kg. For the same molecule, the selectivity ratio in data set [2] came out at 17. In addition, the “Tolerability: Heart rate (-20%)” value in data set [3] is 53 nmols/kg.

For the molecule `COc1ccc(CCC(C)N[C@@H](CO)[C@@H](O)c2ccc(SC)cc2)cc1OC.Cl` (relative stereo) [Z. 1434, (1S,2S)-1-(4-methylthiophenyl)-2-[1-methyl-3-(3,4-dimethoxyphenyl)-propylamino]-1,3propanediol hydrochloride], the “ratio between the CaCl2 concentration producing the 50% contraction in presence or in absence of various compounds” value in data set [4] (setting [7]) was 21; in data set [4] (setting [8]) it was 5. The ED50 in data set [1] (setting [6]) amounted to 0.00045 µmol/kg. Further, the selectivity ratio in data set [2] was found to be 93. In data set [3], the “Tolerability: Heart rate (-20%)” value stood at 42 nmols/kg.

On to `CSc1ccc([C@H](O)[C@H](CO)NCC(c2ccccc2)c2ccccc2)cc1` [Z. 1415, (1S,2S)-1-(4-methylthiophenyl)-2-(2,2-diphenylethylamino)-1,3-propanediol], for which the “ratio between the CaCl2 concentration producing the 50% contraction in presence or in absence of various compounds” value is 27 in data set [4] (setting [7]) and 6 in data set [4] (setting [8]). Besides, the ED50 in data set [1] (setting [6]) amounted to 0.0029 µmol/kg. Also, the selectivity ratio in data set [2] turned out to be 17. Also, in data set [3], the “Tolerability: Heart rate (-20%)” value was determined as 49 nmols/kg.

Take `CSc1ccc([C@H](O)[C@H](CO)N2CCN(C(c3ccccc3)c3ccccc3)CC2)cc1` [Z. 1439]: the “ratio between the CaCl2 concentration producing the 50% contraction in presence or in absence of various compounds” value in data set [4] (setting [7]) turned out to be 24; in data set [4] (setting [8]), 4. Further, the ED50 in data set [1] (setting [6]) came out at 0.0033 µmol/kg. The selectivity ratio in data set [2] was found to be 7. Besides, the “Tolerability: Heart rate (-20%)” value in data set [3] is reported as 23 nmols/kg.

As to `Fc1ccc(C(c2ccc(F)cc2)N2CCN(C/C=C/c3ccccc3)CC2)cc1` [Flunarizine, reference compound], the “ratio between the CaCl2 concentration producing the 50% contraction in presence or in absence of various compounds” value is reported as 16 in data set [4] (setting [7]) and 1 in data set [4] (setting [8]). In addition, the ED50 in data set [1] (setting [9]) worked out at 0.00048 µmol/kg.

Consider `CSc1ccc([C@H](O)[C@H](CO)N(C)C(C)CCc2ccccc2)cc1` (some centres unmarked) [Z. 1428], for which the “ratio between the CaCl2 concentration producing the 50% contraction in presence or in absence of various compounds” value in data set [4] (setting [7]) came out at 30; in data set [4] (setting [8]) it was 2.

For `CSc1ccc([C@@H](O)[C@@H](CO)NC(C)COc2ccccc2)cc1` (some centres unmarked) [Z. 1408], the ED50 in data set [5] was found to be 35 µmol/kg. In addition, the “number of protected rats/total number” value in data set [5] (dose 16 μmols/Kg i.v.) is on record as 1/8; in data set [5] (dose 32 μmols/Kg i.v.), 4/8; in data set [5] (dose 56 μmols/Kg i.v.), 6/8. Moreover, in data set [1] (setting [10]), the “Coronary dilating activity ED50” value is listed as 3.7 nmols/kg/i.v. The “Tolerability: Heart rate (-20%)” value in data set [3] came out at 76 nmols/kg. For the same molecule, in data set [3], the Therapeutic index is listed as 21.

As to `CSc1ccc([C@H](O)[C@H](CO)NC(C)c2ccccc2)cc1` (relative stereo) [Z. 1413, (1S,2S,1'S*)-1-(4-methylthiophenyl)-2-(1-methylbenzylamino)-1,3-propanediol], the “Coronary dilating activity ED50” value in data set [1] (setting [10]) is recorded as 4.5 nmols/kg/i.v. In data set [3], the “Tolerability: Heart rate (-20%)” value was 230 nmols/kg and the Therapeutic index is 51.

Regarding `CSc1ccc([C@H](O)[C@H](CO)NC(C)CCc2ccccc2)cc1.Cl` (relative stereo) [Z. 1411, (1S,2S)-1-(4-methylthiophenyl)-2-(1-methyl-3-phenylpropylamino)-1,3-propanediol hydrochloride], the results for the “ratio between the CaCl2 concentration producing the 50% contraction in presence or in absence of various compounds” value in data set [4] (setting [7]) and in data set [4] (setting [8]) were 15 and 10, respectively. Further, the ED50 in data set [5] was found to be 13 µmol/kg; in data set [1] (setting [6]), 0.001 µmol/kg. The “number of protected rats/total number” value is 0/8 in data set [5] (dose 8 μmols/Kg i.v.), 4/8 in data set [5] (dose 12 μmols/Kg i.v.) and 6/8 in data set [5] (dose 16 μmols/Kg i.v.). The selectivity ratio in data set [2] stood at 44. Also, the “Tolerability: Heart rate (-20%)” value in data set [3] is 44 nmols/kg.

In the case of `CSc1ccc([C@H](O)[C@H](CO)NC(C)COc2ccccc2)cc1` (some centres unmarked) [Z. 1394], the “ratio between the CaCl2 concentration producing the 50% contraction in presence or in absence of various compounds” value was determined as 7 in data set [4] (setting [7]) and 3 in data set [4] (setting [8]).

For `CSc1ccc([C@@H](O)[C@H](CO)NCCC(c2ccccc2)c2ccccc2)cc1` [Z. 1373], the “ratio between the CaCl2 concentration producing the 50% contraction in presence or in absence of various compounds” value in data set [4] (setting [7]) was determined as 86; in data set [4] (setting [8]), 9. Also, the ED50 in data set [1] (setting [6]) worked out at 0.0034 µmol/kg. For the same molecule, the selectivity ratio in data set [2] was found to be 7. Besides, the “Tolerability: Heart rate (-20%)” value in data set [3] is recorded as 23 nmols/kg.

Regarding `COC(=O)C1=C(C)NC(C)=C(C(=O)OC)C1c1ccccc1[N+](=O)[O-]` [Nifedipine, reference compound], in data set [1] (setting [9]), the ED50 came out at 0.00057 µmol/kg.

On to `CSc1ccc([C@H](O)[C@H](CO)NCC(C)c2ccccc2)cc1.Cl` (stereo partly drawn) [Z. 1409, (1S,2S)-1-(4-methylthiophenyl)-2-(2-phenylpropylamino)-1,3-propanediol hydrochloride], for which the “ratio between the CaCl2 concentration producing the 50% contraction in presence or in absence of various compounds” value came to 12 in data set [4] (setting [7]) and 4 in data set [4] (setting [8]). The ED50 in data set [5] came out at 43 µmol/kg; in data set [1] (setting [6]), 0.00084 µmol/kg. Moreover, the “number of protected rats/total number” value in data set [5] (dose 8 μmols/Kg i.v.) is 0/8; in data set [5] (dose 16 μmols/Kg i.v.) it was 2/8; in data set [5] (dose 24 μmols/Kg i.v.) it was 3/8; in data set [5] (dose 48 μmols/Kg i.v.) it was 5/8. Also, the selectivity ratio in data set [2] came out at 87. Further, in data set [3], the “Tolerability: Heart rate (-20%)” value is 73 nmols/kg.

Consider `COc1ccc(CCN(C)CCCC(C#N)(c2ccc(OC)c(OC)c2)C(C)C)cc1OC` (centres unmarked) [Verapamil, reference compound], for which the ED50 in data set [5] was found to be 6 µmol/kg; in data set [1] (setting [6]) it was 0.00015 µmol/kg. In addition, the “number of protected rats/total number” value in data set [5] (dose 4.4 μmols/Kg i.v.) is recorded as 2/8; in data set [5] (dose 7.7 μmols/Kg i.v.), 5/8; in data set [5] (dose 11 μmols/Kg i.v.) it was 6/8.

Take `CSc1ccc([C@H](O)[C@H](CO)NC(C)c2ccccc2)cc1` (some centres unmarked) [Z. 1414]: the ED50 in data set [1] (setting [6]) was 0.004 µmol/kg. Besides, in data set [3], the “Tolerability: Heart rate (-20%)” value is 100 nmols/kg and the Therapeutic index was found to be 25.

Regarding `CC(Cc1ccccc1)NCCC(c1ccccc1)c1ccccc1` (centres unmarked) [Prenylamine, reference compound], the “ratio between the CaCl2 concentration producing the 50% contraction in presence or in absence of various compounds” value in data set [4] (setting [7]) stood at 62; in data set [4] (setting [8]), 12. The ED50 in data set [1] (setting [6]) was found to be 0.00184 µmol/kg. In addition, the selectivity ratio in data set [2] is 11. In data set [3], the “Tolerability: Heart rate (-20%)” value was found to be 19 nmols/kg.
